As a reminder, the EC50 is the concentration that produces a half-maximal response. Broadly, the Ki is the dissociation constant of the complex between target and ligand, obtained from inhibition or displacement. By Emax is commonly meant the greatest response seen or fitted, relative to the assay's reference.

Bridge positions count the residues as written; N and C are the ends. Square brackets hold non-standard residues; d marks the D form. Peptide text beside a SMILES is read from it. dPhe(3-Cl) = N[C@H](Cc1cccc(Cl)c1)C(=O)O; dPhe(4-Cl) = N[C@H](Cc1ccc(Cl)cc1)C(=O)O; dPhe(2-Cl) = N[C@H](Cc1ccccc1Cl)C(=O)O; dPhe(4-F) = N[C@H](Cc1ccc(F)cc1)C(=O)O; dPhe(2-F) = N[C@H](Cc1ccccc1F)C(=O)O; Nle = CCCC[C@H](N)C(=O)O; Orn = NCCC[C@H](N)C(=O)O; Dab = NCC[C@H](N)C(=O)O; Dap = NC[C@H](N)C(=O)O

Our source for the EC50, Ki and Emax values is patent publication US9447148B2, “Melanocortin-1 receptor-specific cyclic peptides” (Palatin Technologies, Inc., priority 2009, dated 2016).

The target of one test is hMCR-1 (Homo sapiens (Human), UniProt Q01726). Kind of test: Assay for agonist activity: intracellular cAMP accumulation in HBL human melanoma cells. The test is classed as cell-based. Conditions: for EC50: HBL cells expressing hMCR-1, averaged, read-out: MC-1 EC50 (average; cAMP HBL). As for the experimental part: Confluent HBL cells that express hMCR-1 or HEK-293 cells that express recombinant hMCR-4 were detached from culture plates by incubation in enzyme-free cell dissociation buffer. Dispersed cells were suspended in Earle's Balanced Salt Solution containing 10 mM HEPES (pH 7.5), 1 mM MgCl2, 1 mM glutamine, 0.5% albumin and 0.3 mM 3-isobutyl-1-methyl-xanthine (IBMX), a phosphodiesterase inhibitor. The cells were plated in 96-well plates at a density of 0.4×10^5 cells per well for HBL cells and 0.5×10^5 cells per well for HEK-293 cells and pre-incubated for 10 minutes. Cells were exposed for 15 minutes at 37° C. to peptides of the present invention dissolved in DMSO (final DMSO concentration of 1%) at a concentration range of 0.05-5000 nM in a total assay volume of 200 μL. […] Data analysis was performed by nonlinear regression analysis with Graph-Pad Prism® software.
(§1) Peptides of the following structures were synthesized and averaged MCR-1 and MCR-4 Ki values were determined as indicated. […] All results are expressed in nM except for Emax values, which are percentage values. Peptides with the captioned primary sequence were synthesized and purified as described in Section 5 above, with the resulting peptide having the structure depicted.

In a further test the target is hMCR-1a (Homo sapiens (Human), UniProt Q01726). Kind of test: Competitive inhibition binding assay using [I125]-NDP-α-MSH, hMCR-1a. To be noted: membrane homogenates of HEK-293 cells, human recombinant receptor, averaged, read-out: MC-1 Ki (average). As for the experimental part: (§2) A competitive inhibition binding assay was performed using membrane homogenates prepared from HEK-293 cells that express recombinant hMCR-1a or hMCR-4 (in each instance where the h prefix refers to human), or alternatively membrane homogenates from B16-F10 mouse melanoma cells containing endogenous murine MCR-1. In the examples that follow, all MCR-1 and MCR-4 values are for human recombinant receptors, unless otherwise noted. Assays were performed in 96 well polypropylene round-bottom plates (VWR catalog number 12777-030). […] After incubation for 90 minutes at 37° C., the assay mixture was filtered onto GF/B Unifilter plates (Perkin-Elmer catalog number 6005177) and washed with 3 mL of ice-cold buffer per well. Filters were air dried and 35 μL of scintillation cocktail added to each well. Plates were counted in a Microbeta counter for bound radioactivity. […] Each assay was conducted in duplicate and the actual mean values are described, with results less than 0% reported as 0%. Ki values for peptides of the present invention were determined using Graph-Pad Prism® curve-fitting software.
as §1

For a further test, the target named is hMCR-4 (Homo sapiens (Human), UniProt P32245). The test can be described thus: Competitive inhibition binding assay using [I125]-NDP-α-MSH, hMCR-4. To be noted: membrane homogenates of HEK-293 cells, human recombinant receptor, averaged, read-out: MC-4 Ki (average). As for the experimental part:
as §2, §1

hMCR-1a, sequence (Q01726 whole entry): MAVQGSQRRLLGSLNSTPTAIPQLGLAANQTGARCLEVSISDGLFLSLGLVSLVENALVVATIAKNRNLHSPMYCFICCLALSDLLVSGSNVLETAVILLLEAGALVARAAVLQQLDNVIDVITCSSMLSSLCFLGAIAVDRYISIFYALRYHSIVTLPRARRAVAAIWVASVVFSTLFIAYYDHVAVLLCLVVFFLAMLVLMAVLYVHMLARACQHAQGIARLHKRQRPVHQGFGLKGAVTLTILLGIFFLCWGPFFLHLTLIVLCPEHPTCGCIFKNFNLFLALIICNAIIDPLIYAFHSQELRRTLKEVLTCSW
hMCR-1, sequence (Q01726 whole entry): as above
hMCR-4, sequence (P32245 whole entry): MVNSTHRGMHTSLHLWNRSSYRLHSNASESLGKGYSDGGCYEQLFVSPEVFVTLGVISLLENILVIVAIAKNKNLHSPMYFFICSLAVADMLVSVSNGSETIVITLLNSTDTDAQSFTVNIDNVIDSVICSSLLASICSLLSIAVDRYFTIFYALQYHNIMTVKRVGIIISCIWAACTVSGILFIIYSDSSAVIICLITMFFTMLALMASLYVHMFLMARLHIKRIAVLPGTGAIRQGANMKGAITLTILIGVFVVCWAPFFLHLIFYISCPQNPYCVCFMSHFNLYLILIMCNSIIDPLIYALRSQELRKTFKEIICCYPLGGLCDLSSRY

With `CCCC[C@H](NC(C)=O)C(=O)N[C@H]1CCC(=O)NCC[C@@H](C(N)=O)NC(=O)[C@H](CCCNC(=N)N)NC(=O)[C@@H](Cc2ccc(F)cc2)NC(=O)[C@H](CCCN)NC1=O` [Example 9.61, Ac-Nle-cyclo(Glu-Orn-D-Phe(4-F)-Arg-Dab)-NH2] (Ac-[Nle]E[Orn][dPhe(4-F)]R[Dab]-NH2; lactam 2-6), the EC50 at hMCR-1 came out at 1 nM. The values for the Ki at hMCR-1a and at hMCR-4 were 20 nM and 10000 nM, respectively.
On to `CCCC[C@H](NC(C)=O)C(=O)N[C@H]1CCC(=O)NCC[C@@H](C(=O)N[C@@H](CCCCN)C(N)=O)NC(=O)[C@H](CCCNC(=N)N)NC(=O)[C@@H](Cc2ccccc2)NC(=O)[C@H](Cc2c[nH]cn2)NC1=O` [Example 9.39, Ac-Nle-cyclo(Glu-His-D-Phe-Arg-Dab)-Lys-NH2] (Ac-[Nle]EH[dF]R[Dab]K-NH2; lactam 2-6), for which the EC50 at hMCR-1 was found to be 0.175 nM. Also, the Ki on hMCR-1a is 2 nM; on hMCR-4 it was 7380 nM.
As to `CCCC[C@H](NC(C)=O)C(=O)N[C@H]1CCC(=O)NCC[C@@H](C(N)=O)NC(=O)[C@H](C)NC(=O)[C@@H](Cc2ccccc2)NC(=O)[C@H](Cc2c[nH]cn2)NC1=O` [Example 9.33, Ac-Nle-cyclo(Glu-His-D-Phe-Ala-Dab)-NH2] (Ac-[Nle]EH[dF]A[Dab]-NH2; lactam 2-6), the EC50 on hMCR-1 stood at 44 nM. Also, the Ki on hMCR-1a worked out at 645 nM; on hMCR-4, 10000 nM.
For `CCCC[C@H](NC(C)=O)C(=O)N[C@H]1CCC(=O)NCC[C@@H](C(N)=O)NC(=O)[C@H](CCCNC(=N)N)NC(=O)[C@@H](Cc2ccc(Cl)cc2)NC(=O)[C@H](CCCN)NC1=O` [Example 9.59, Ac-Nle-cyclo(Glu-Orn-D-Phe(4-Cl)-Arg-Dab)-NH2] (Ac-[Nle]E[Orn][dPhe(4-Cl)]R[Dab]-NH2; lactam 2-6), in that order: 0.1 nM, 2 nM and 1240 nM.
On to `CCCC[C@H](NC(C)=O)C(=O)N[C@H]1CCC(=O)NCC[C@@H](C(=O)N[C@@H](C)C(N)=O)NC(=O)[C@H](CCCNC(=N)N)NC(=O)[C@@H](Cc2ccccc2)NC(=O)[C@H](Cc2c[nH]cn2)NC1=O` [Example 9.25, Ac-Nle-cyclo(Glu-His-D-Phe-Arg-Dab)-Ala-NH2] (Ac-[Nle]EH[dF]R[Dab]A-NH2; lactam 2-6), for which the EC50 at hMCR-1 came out at 0.08 nM. Besides, the values for the Ki at hMCR-1a and at hMCR-4 were 2 nM and 7480 nM, respectively.
For `CCCC[C@H](NC(C)=O)C(=O)N[C@H]1CCC(=O)NCC[C@@H](C(N)=O)NC(=O)[C@H](CCCNC(=N)N)NC(=O)[C@@H](Cc2cccc(Cl)c2)NC(=O)[C@H](CCCN)NC1=O` [Example 9.58, Ac-Nle-cyclo(Glu-Orn-D-Phe(3-Cl)-Arg-Dab)-NH2] (Ac-[Nle]E[Orn][dPhe(3-Cl)]R[Dab]-NH2; lactam 2-6) the same measures were 2 nM, 35 nM and 10000 nM.
As to `CCCC[C@H](NC(C)=O)C(=O)N[C@H]1CCC(=O)NCC[C@@H](C(=O)N[C@@H](Cc2c[nH]c3ccccc23)C(N)=O)NC(=O)[C@H](C)NC(=O)[C@@H](Cc2ccccc2)NC(=O)[C@H](Cc2c[nH]cn2)NC1=O` [Example 9.35, Ac-Nle-cyclo(Glu-His-D-Phe-Ala-Dab)-Trp-NH2] (Ac-[Nle]EH[dF]A[Dab]W-NH2; lactam 2-6), the EC50 on hMCR-1 worked out at 0.115 nM. The Ki was 0.8 nM on hMCR-1a and 10000 nM on hMCR-4.
Consider `CCCC[C@H](NC(C)=O)C(=O)N[C@H]1CCC(=O)NCC[C@@H](C(=O)N[C@@H](Cc2c[nH]c3ccccc23)C(N)=O)NC(=O)CNC(=O)[C@@H](Cc2ccccc2)NC(=O)[C@H](Cc2c[nH]cn2)NC1=O` [Example 9.34, Ac-Nle-cyclo(Glu-His-D-Phe-Gly-Dab)-Trp-NH2] (Ac-[Nle]EH[dF]G[Dab]W-NH2; lactam 2-6), for which the concentration giving a half-maximal response (EC50) at hMCR-1 was found to be 4 nM. In addition, the figures for the Ki at hMCR-1a and at hMCR-4 were 9 nM and 10000 nM, respectively.
In the case of `CCCC[C@H](NC(C)=O)C(=O)N[C@H]1CCC(=O)NC[C@@H](C(=O)N[C@@H](Cc2c[nH]c3ccccc23)C(=O)O)NC(=O)[C@H](CCCNC(=N)N)NC(=O)[C@@H](Cc2ccccc2)NC(=O)[C@H](Cc2c[nH]cn2)NC1=O` [Example 9.26, Ac-Nle-cyclo(Glu-His-D-Phe-Arg-Dap)-Trp-OH], the Emax on hMCR-1 (HBL, HBL cells, maximum efficacy compared to reference agonist NDP-α-MSH, read-out: MC-1 Emax (average; cAMP HBL)) came to 81%. Further, the Ki at hMCR-1a was determined as 1 nM; on hMCR-4, 4700 nM.
For the molecule `CCCC[C@H](NC(C)=O)C(=O)N[C@H]1CCC(=O)NCC[C@@H](C(N)=O)NC(=O)[C@H](CCCNC(=N)N)NC(=O)[C@@H](Cc2ccccc2F)NC(=O)[C@H](CCCN)NC1=O` [Example 9.60, Ac-Nle-cyclo(Glu-Orn-D-Phe(2-F)-Arg-Dab)-NH2] (Ac-[Nle]E[Orn][dPhe(2-F)]R[Dab]-NH2; lactam 2-6), at hMCR-1, the EC50 amounted to 0.8 nM. In addition, the Ki worked out at 18 nM at hMCR-1a and 10000 nM at hMCR-4.
In the case of `CCCC[C@H](NC(C)=O)C(=O)N[C@H]1CC(=O)NC[C@@H](C(=O)N[C@@H](Cc2c[nH]c3ccccc23)C(N)=O)NC(=O)[C@H](CCCNC(=N)N)NC(=O)[C@@H](Cc2ccccc2)NC(=O)[C@H](Cc2c[nH]cn2)NC1=O` [Example 9.4, Ac-Nle-cyclo(Asp-His-D-Phe-Arg-Dap)-Trp-NH2] (Ac-[Nle]DH[dF]R[Dap]W-NH2; lactam 2-6), the EC50 at hMCR-1 is 0.195 nM. For the same molecule, the Ki at hMCR-1a is 2 nM; at hMCR-4, 1320 nM.
As for `CCCC[C@H](NC(C)=O)C(=O)N[C@H]1CCC(=O)NCC[C@@H](C(N)=O)NC(=O)[C@H](CCCNC(=N)N)NC(=O)[C@@H](Cc2ccccc2)NC(=O)[C@H](Cc2c[nH]cn2)NC1=O` [Example 9.32, Ac-Nle-cyclo(Glu-His-D-Phe-Arg-Dab)-NH2] (Ac-[Nle]EH[dF]R[Dab]-NH2; lactam 2-6), the concentration giving a half-maximal response (EC50) on hMCR-1 is 0.32 nM. In addition, the Ki came to 7 nM at hMCR-1a and 10000 nM on hMCR-4.
Take `CCCC[C@H](NC(C)=O)C(=O)N[C@H]1CCC(=O)NCC[C@@H](C(N)=O)NC(=O)[C@H](CCCNC(=N)N)NC(=O)[C@@H](Cc2ccccc2Cl)NC(=O)[C@H](CCCN)NC1=O` [Example 9.57, Ac-Nle-cyclo(Glu-Orn-D-Phe(2-Cl)-Arg-Dab)-NH2] (Ac-[Nle]E[Orn][dPhe(2-Cl)]R[Dab]-NH2; lactam 2-6): the concentration giving a half-maximal response (EC50) at hMCR-1 came out at 1 nM. Moreover, the Ki at hMCR-1a stood at 30 nM; at hMCR-4, 10000 nM.
